The numbers were not newly measured in patent EP3111929B1, “ORAL DISINTEGRATING FILM FORMULATION CONTAINING TADALAFIL AND PREPARATION METHOD THEREFOR” (Wooshin Labottach Co., Ltd., priority 2014, dated 2015), which cites them from elsewhere.

One data set has as its system PDE5/PDE6. As to conditions: compared with sildenafil; background statement.
For data set [1] the following is noted: water; background statement.

As for `CN1CC(=O)N2[C@H](c3ccc4c(c3)OCO4)c3[nH]c4ccccc4c3C[C@@H]2C1=O` [tadalafil, (6R, 12aR)-6-(1,3-benzodioxol-5-yl)-2,3,6,7,12,12a-hexahydro-2-methyl-pyrazino[1',2':1,6]p yrido[3,4-b]indole-1,4-dion], the “selectivity of PDE5/PDE6” value with PDE5/PDE6 is given as “better than sildenafil”. In addition, in data set [1], the solubility entry is reported as “actually water-insoluble”.
